Source: patent US20160101076A1, “Use of Sumoylation Inhibitors for Treating Cancer” (priority 2013, published 2016)

How the values were obtained:
BT20 xenografts = BT20 xenografts from cells pretreated before inoculation; type: in vivo; conditions: BT20 cells pretreated for 48 hours prior to inoculation in nude mice; FIG. 8A
Text: FIGS. 8A-8D. SUMO Inhibitors Repressed Outgrowth of Xenografts. FIG. 8A. […] FIG. 8B. Tumor-free survival of nude mice (n=5 per group) inoculated with BT20 cells with animals gavaged with AA vs. vehicle. FIG. 8C. IOWA-1T cells were pre-treated with anacardic acid (AA) or vehicle and mice were followed until requiring euthanasia due to tumor size (Overall Survival). […] FIG. 8D. Nude mice were inoculated with 1×10^6, 5×10^5, or 2.5×10^5 IOWA-1T cells and animals were gavaged with either vehicle or AA; vehicle-gavaged mice developed tumors in 5, 10 and 12 days, respectively.
To address the effects of GA and AA on tumor initiation, BT20 cells were pretreated with GA or AA compared to vehicle prior to inoculation of xenografts in nude mice. As noted in FIG. 8A, pretreatment of the cells repressed the formation of tumor xenografts, whereas, vehicle treated cells formed xenografts with a median time of 8 weeks. […] We created a breast carcinoma cell line (IOWA-1T) from the basal tumor-derived cells used in FIG. 6A. The IOWA-1T cell line rapidly forms locally advanced tumors in nude mice. Identical experiments using the IOWA-1T basal cell line confirmed that either pre-treating the cancer cells or gavaging animals with AA repressed tumor initiation of xenografts (FIGS. 8C and 8D). […]

[1] = test system: undifferentiated thyroid cell line 8505c; assay: CD44 Western blot in 8505c thyroid carcinoma; type: cell-based; conditions: 96 h treatment, FIG. 19
Description: FIG. 19: Western blot, CD44 downregulation, 8505c thyroid carcinoma was treated with ginkgolic and anacardic acids, 96 h.
Similar downregulation of stem cell marker CD44 was determined in pancreatic carcinoma Panc-1 cell line (FIG. 18) and undifferentiated thyroid cell line 8505c (FIG. 19) after 96 h treatment with SUMO inhibitors anacardic and ginkgolic acids. • Woodfield, G. W., Horan, A. D., Chen, Y. & Weigel, R. J. TFAP2C controls hormone response in breast cancer cells through multiple pathways of estrogen signaling. Cancer Res 67, 8439-8443 (2007). • Woodfield, G. W., Chen, Y., Bair, T. B., Domann, F. E. & Weigel, R. J. Identification of primary gene targets of TFAP2C in hormone responsive breast carcinoma cells. Genes Chromosomes Cancer 49, 948-962, doi:10.1002/gcc.20807 (2010). • Tan, S. K. et al. AP-2gamma regulates oestrogen receptor-mediated longrange chromatin interaction and gene transcription. Embo J 30, 2569-2581, doi:10.1038/emboj.2011.151 (2011). • Sorlie, T. et al. Gene expression patterns of breast carcinomas distinguish tumor subclasses with clinical implications. Proc Natl Acad Sci USA 98, 10869-10874. (2001). • Kao, J. et al. Molecular profiling of breast cancer cell lines defines relevant tumor models and provides a resource for cancer gene discovery. […]

In the case of `CCCCCC/C=C\CCCCCCCc1cccc(O)c1C(=O)O` [GA, (Z)-6-(Pentadec-8-enyl)-2-hydroxybenzoic acid], the “formation of tumor xenografts (tumor free survival)” value (BT20 xenografts) was “repressed” and the “stem cell marker CD44 (Western blot)” value [1] was “downregulation”.
With `CCCCCCCCCCCCCCCc1cccc(O)c1C(=O)O` [AA, Anacardic acid (C15:0)] the “formation of tumor xenografts (tumor free survival)” value (BT20 xenografts) was “repressed” and the “stem cell marker CD44 (Western blot)” value [1] was “downregulation”.
